# Molecular target: Cyclic GMP-AMP synthase (Homo sapiens, UniProt Q8N884)
# Test: Inhibition of recombinant His6-SUMO tagged human CGAS expressed in Escherichia coli BL21/pLys cells incubated for 20 mins by Kinase Glo chemiluminescence assay
# Chain of Cyclic GMP-AMP synthase (Q8N884 whole entry): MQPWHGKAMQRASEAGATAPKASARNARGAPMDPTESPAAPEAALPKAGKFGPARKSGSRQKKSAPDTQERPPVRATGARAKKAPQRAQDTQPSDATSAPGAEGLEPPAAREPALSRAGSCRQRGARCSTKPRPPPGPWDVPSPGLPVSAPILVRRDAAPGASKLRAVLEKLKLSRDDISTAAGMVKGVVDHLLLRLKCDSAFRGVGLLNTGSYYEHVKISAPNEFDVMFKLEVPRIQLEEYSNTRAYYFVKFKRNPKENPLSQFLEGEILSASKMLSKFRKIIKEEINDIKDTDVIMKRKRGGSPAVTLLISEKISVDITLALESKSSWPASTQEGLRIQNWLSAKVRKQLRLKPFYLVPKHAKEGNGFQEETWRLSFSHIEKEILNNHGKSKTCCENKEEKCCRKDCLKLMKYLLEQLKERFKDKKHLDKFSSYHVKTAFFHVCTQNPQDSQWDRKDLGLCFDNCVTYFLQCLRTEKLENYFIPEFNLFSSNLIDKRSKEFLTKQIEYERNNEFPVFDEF
row,Structure (SMILES),IC50
1,O=C1/C(=C/c2cc(OCc3ccncc3)c(O)cc2Br)Sc2ncccc21,≤ 0.5 µM
2,CN1C(=O)S/C(=C\c2cc(OCc3cnc(-n4ccnc4)nc3)c(O)cc2Br)C1=O,0.5 to 10 µM
3,CN1C(=O)S/C(=C\c2cc(Oc3cccc4cnccc34)c(O)cc2Br)C1=O,≥ 10 µM
4,CN1C(=O)S/C(=C\c2cc(OCc3cnc(-n4cccn4)nc3)c(O)cc2Br)C1=O,0.5 to 10 µM
5,CC/N=C1/S/C(=C\c2cc(OC)c(O)cc2Br)C(=O)N1C,≥ 10 µM
6,CN1C(=O)S/C(=C\c2cc(OCc3ccc(NC(=O)c4ccncc4)nc3)c(O)cc2Br)C1=O,≤ 0.5 µM
7,CN1C(=O)S/C(=C\c2cc(OCc3ccccn3)c(O)cc2Br)C1=O,≥ 10 µM
8,CCc1cc(/C=C2\SC(=O)N(C)C2=O)c(Br)cc1O,0.5 to 10 µM
9,CN1C(=O)S/C(=C\c2cc(OCc3ccnc(N)n3)c(O)cc2Br)C1=O,0.5 to 10 µM
10,CN1C(=O)S/C(=C\c2cc(Oc3ccc(-c4ccncc4)cc3)c(O)cc2Br)C1=O,≥ 10 µM
11,CN1C(=O)S/C(=C\c2cc(OCCc3cnc(N)nc3N)c(O)c(F)c2Br)C1=O,≤ 0.5 µM
12,O=C1NC(=O)/C(=C/c2cccnc2)S1,≥ 10 µM
13,O=C1NC(=O)/C(=C/c2cnccn2)S1,≥ 10 µM
14,COc1cc(/C=C2\SC(=O)N(C)C2=O)c(Br)cc1Oc1cnc(NCc2ccncc2)s1,≥ 10 µM
15,COc1cc(/C=C2\SC(=O)N(C)C2=O)c(Br)c(Cl)c1O,≥ 10 µM
16,COc1cc(/C=C2\Sc3ncccc3C2=O)c(I)cc1O,≤ 0.5 µM
17,COc1cc(/C=C2\SC(=O)N(C)C2=O)c(Br)cc1Oc1nncs1,≥ 10 µM
18,CN1C(=O)S/C(=C\c2cc(OCc3ccc(NC(=O)c4cccnc4)nc3)c(O)cc2Br)C1=O,0.5 to 10 µM
19,CSc1cc(/C=C2\SC(=O)N(C)C2=O)c(Br)cc1O,0.5 to 10 µM
20,CN1C(=O)S/C(=C\c2cc(OCc3cnc(-c4ccccc4)nc3)c(O)cc2Br)C1=O,≥ 10 µM
21,CN1C(=O)S/C(=C\c2ccc(O)cc2Br)C1=O,≥ 10 µM
22,CN1C(=O)S/C(=C\c2cc(OCc3cnc(Nc4ccccn4)nc3)c(O)cc2Br)C1=O,≥ 10 µM
23,CC(Oc1cc(/C=C2\SC(=O)N(C)C2=O)c(Br)c(F)c1Oc1cnc(N)s1)c1cnc(N)nc1 (stereo unspecified),0.5 to 10 µM
24,O=C1/C(=C/c2cc(OCc3cnc(NCc4ccccn4)nc3)c(O)cc2Br)Sc2ncccc21,≤ 0.5 µM
25,CN1C(=O)S/C(=C\c2cc(OCc3ccccc3)c(O)cc2Br)C1=O,≥ 10 µM
26,COCCNc1ncc(C(C)Oc2cc(/C=C3\SC(=O)N(C)C3=O)c(Br)cc2O)cn1 (stereo unspecified),0.5 to 10 µM

row,Structure (SMILES),IC50
1,Cc1nc(N)ncc1C(C)Oc1cc(/C=C2\Sc3ncccc3C2=O)c(Br)c(F)c1O (stereo unspecified),≤ 0.5 µM
2,C#Cc1cc(O)c(OC)cc1/C=C1\SC(=O)N(C)C1=O,≥ 10 µM
3,CN1C(=O)S/C(=C\c2cc(OCC3CCN(C(=O)c4cccnc4)CC3)c(O)cc2Br)C1=O,0.5 to 10 µM
4,CN1C(=O)S/C(=C\c2cc(OCC(=O)Nc3nncs3)c(O)c(F)c2Br)C1=O,0.5 to 10 µM
5,O=C1NC(=O)/C(=C/c2cncnc2)S1,≥ 10 µM
6,N=C1NC(=O)/C(=C/c2ccncc2)S1,≥ 10 µM
7,COc1cc(/C=C2\SC(=O)N(C)C2=O)c(Br)cc1-c1nn[nH]n1,≥ 10 µM
8,CN1C(=O)S/C(=C\c2cc(OCc3cnc(-c4cccnc4)nc3)c(O)cc2Br)C1=O,≥ 10 µM
9,CN1C(=O)S/C(=C\c2cc(Oc3ccc(-c4ccccn4)cc3)c(O)cc2Br)C1=O,≥ 10 µM
10,COc1cc(/C=c2\sc3n(c2=O)CCCN=3)c(Cl)cc1O,≥ 10 µM
11,CNc1ncc(COc2cc(/C=C3\SC(=O)N(C)C3=O)c(Br)c(F)c2O)cn1,≤ 0.5 µM
12,CN1C(=O)S/C(=C\c2cc(OCc3cnc(S)nc3)c(O)cc2Br)C1=O,≥ 10 µM
13,CSc1ncncc1C(=O)C(C)Oc1cc(/C=C2\SC(=O)N(C)C2=O)c(Br)c(F)c1O (stereo unspecified),≥ 10 µM
14,CC(C)c1cc(/C=C2\SC(=O)N(C)C2=O)c(Br)cc1O,≥ 10 µM
15,CN1C(=O)S/C(=C\c2cc(OCc3cncc(NC(=O)c4ccncc4)c3)c(O)cc2Br)C1=O,≥ 10 µM
16,CN1C(=O)S/C(=C\c2cc(OCc3cnc(Nc4cccnc4)nc3)c(O)cc2Br)C1=O,0.5 to 10 µM
17,CN1C(=O)S/C(=C\c2cc3cc[nH]c3cc2Br)C1=O,0.5 to 10 µM
18,COc1cc(/C=C2\SC(=O)N(C)C2=O)c(C(F)(F)F)cc1O,≥ 10 µM
19,COc1cc(/C=C/C=C2\SC(=O)N(C)C2=O)c(Br)cc1O,≥ 10 µM
20,CSc1ncc(COc2cc(/C=C3\SC(=O)N(C)C3=O)c(Br)cc2O)cn1,≥ 10 µM
21,CN1C(=O)S/C(=C\c2cc(Oc3ccc(=O)[nH]c3)c(O)cc2Br)C1=O,0.5 to 10 µM
22,CN1C(=O)S/C(=C\c2cc(OCc3cnc(C4CCNCC4)nc3)c(O)cc2Br)C1=O,0.5 to 10 µM
23,Cc1ncc(COc2cc(/C=C3\SC(=O)N(C)C3=O)c(Br)c(F)c2O)cn1,0.5 to 10 µM
24,COc1cc(/C=C2\SC(=O)N(C)C2=O)c(Br)cc1Oc1ccnc2ccccc12,≥ 10 µM
25,CN1C(=O)S/C(=C\c2cc3oc(=O)[nH]c3cc2Br)C1=O,≥ 10 µM

# Further lines, results first:
row,IC50,Structure (SMILES)
1,≤ 0.5 µM,CSc1nc([S+](C)[O-])ncc1COc1cc(/C=C2\Sc3ncccc3C2=O)c(Br)c(F)c1O (stereo unspecified)
2,≥ 10 µM,CN1C(=O)S/C(=C\c2cc(OCc3cnc(NCc4ccccn4)nc3)c(O)c(F)c2Br)C1=O
3,≥ 10 µM,CN1C(=O)S/C(=C\c2cc(OCc3cnc(C4CC4)nc3)c(O)cc2Br)C1=O
4,≥ 10 µM,CN1C(=O)S/C(=C\c2cc(Oc3cccc(O)c3N)c(O)cc2Br)C1=O
5,≥ 10 µM,CN1C(=O)S/C(=C\c2cc(OCC3CCN(C(=O)c4ccccc4)CC3)c(O)cc2Br)C1=O
6,≥ 10 µM,COc1cc(/C=c2\sc3nc(C)cn3c2=O)c(Br)cc1O
7,0.5 to 10 µM,CC(Oc1cc(/C=C2\Sc3ncccc3C2=O)c(Br)cc1O)c1cccnc1 (stereo unspecified)
8,≤ 0.5 µM,COc1cc(/C=C2\Sc3ncc(F)cc3C2=O)c(Br)cc1O
9,≥ 10 µM,CN1C(=O)S/C(=C\c2cc(Oc3ccccc3)c(O)cc2Br)C1=O
10,≤ 0.5 µM,CC(Oc1cc(/C=C2\SC(=O)N(C)C2=O)c(Br)cc1O)c1cnc(N)nc1 (stereo unspecified)
11,≥ 10 µM,Cc1nc(N)nc(C)c1COc1cc(/C=C2\SC(=O)N(C)C2=O)c(Br)cc1O
12,≤ 0.5 µM,CN1C(=O)S/C(=C\c2cc(OCc3cnc(NC(=O)c4ccncc4)nc3)c(O)cc2Br)C1=O
13,≥ 10 µM,CN1C(=O)S/C(=C\c2cc(O)c(O)cc2F)C1=O
14,≤ 0.5 µM,C/C(=C1/SC(=O)NC1=O)c1ccncc1
15,≤ 0.5 µM,COc1cc(/C=C2\Sc3cnccc3C2=O)c(Br)cc1O
16,≥ 10 µM,COc1cc(/C=C2\SC(=O)N(C)C2=O)c(F)cc1O
17,≤ 0.5 µM,O=C1/C(=C/c2cc(OCc3cnc(NCc4cccnc4)nc3)c(O)cc2Br)Sc2ncccc21
18,≥ 10 µM,CN1CCN(c2ncc(COc3cc(/C=C4\SC(=O)N(C)C4=O)c(Br)cc3O)cn2)CC1
19,≥ 10 µM,CN1C(=O)S/C(=C\c2cc(OCc3ccn(Cc4ccccc4)c(=O)c3)c(O)cc2Br)C1=O
20,≥ 10 µM,CN1C(=O)S/C(=C\c2cc(Oc3ccncc3)c(O)cc2Br)C1=O
21,≤ 0.5 µM,Nc1ncc(/C=C/c2cc(/C=C3\Sc4ncccc4C3=O)c(Br)cc2O)cn1
22,≥ 10 µM,CN1C(=O)S/C(=C\c2cc(OCc3cncc(N)c3)c(O)cc2Br)C1=O
23,≥ 10 µM,CSc1ncc(COc2cc(/C=C3\SC(=O)N(C)C3=O)c(Br)cc2O)c(SC)n1
24,≥ 10 µM,Cc1nc(N)ncc1C(C)Oc1cc(/C=C2\SC(=O)N(C)C2=O)c(Br)cc1O (stereo unspecified)
25,≤ 0.5 µM,COc1cc(/C=C2\Sc3ncccc3C2=O)c(Br)c(Cl)c1O
